Assay results taken from patent publication US8779002B2, “Methods for treating a variety of diseases and conditions, and compounds useful therefor” (Salk Institute for Biological Studies, priority 2007, dated 2014).

Tests used:
[1] = test system: HT22 cells; experiment: HT22 oxidative glutamate toxicity (oxytosis) assay; format: cell-based, mouse; conditions: Oxidative glutamate toxicity (oxytosis); read-out: HT-22 EC50
Description: FIG. 1D illustrates the results of an oxidative stress assay. HT22 cells were treated with 5 mM glutamate and different concentrations of two versions of curcumin derivatives. Cell viability was measured 24 hr later by the MTT assay (J. B. Davis and P. Maher, Protein kinase C activation inhibits glutamate-induced cytotoxicity in a neuronal cell line. Brain Res. 652 (1994) 169-173). Legend for FIG. 1A, FIG. 1B and FIG. 1D: x-x, Cmpd CNB-001, o-o, Cmpd J147.
Similar toxicity assays as described above are also conducted with invention compounds using HT22 cells in an assay for oxidative stress. After exposure with 1 mM, 2 mM, 2.5 mM, or 5 mM glutamate, cell viability is determined with the MTT assay.
HT22 hippocampal neurons are treated with 5 mM glutamate and increasing concentrations of invention compounds. Cell viability is measured 24 hr later by the MTT assay (Davis and Maher, Brain Res. 652:169-173 (1994)).

[2] = test system: primary cortical neurons; experiment: Trophic factor withdrawal (TFW) assay; format: cell-based, rat; conditions: Trophic factor withdrawal assay; read-out: TFW EC50
Description: FIG. 1A illustrates the results of a trophic factor withdrawal assay. Primary cortical neurons are prepared from 18-day-old rat embryos, and cultured at low cell density 1×10^6/35 mm dish, in serum containing medium, with different compounds Viability is then assayed 2 days later using a fluorescent live-dead assay (Molecular Probes).
Primary cortical neurons can be prepared from 18-day-old embryos of Sprague-Dawley rats as described (Liu & Schubert, J. Neurochem., 1997, 69:2285-2293 and J. Neurochem., 1998, 71:2322-2329). Briefly, the cerebral cortex is dissected out under an anatomical microscope and is freed of meninges and blood vessels. The cortex is cut into small pieces and is then dissociated by trypsin digestion and passed through a pipette tip. Dissociated neurons are suspended in various media and plated on polylysine-coated 35 mm tissue culture dishes (e.g., 1×10^6 cells/dish). Several different culture conditions can be used as known in the art. Invention compounds can be added to cell culture dishes. Cell survival can be measured 1-2 days after compound administration.
A serum-containing medium can be used which includes a minimal essential medium (Sigma) containing 30 mM glucose, 2 mM glutamine, 1 mM pyruvate, penicillin (100 U/ml), streptomycin (100 μg/ml), and 10% fetal calf serum. At a plating density of 1×10^6 cells/dish, most neurons die after one week of culture in this medium. If plated at a density of 2×10^6 cells/dish, then most neurons survive. The cell density-dependent neuronal survival in this system is most likely dependent on the neurotrophic factors secreted by the neurons, not by the glia. The results are the same when glial proliferation is inhibited by cytosine arabinoside.
The structure-activity relationships of compounds according to the present invention can be determined by measuring trophic factor withdrawal in […] primary cortical neurons. As shown in FIG. 1A-FIG. 1D, compounds are added to low density primary cultures of E18 rat cortical neurons at the time of plating, and cell survival is determined two days later by a variety of methods.

[3] = test system: MC-65 cells; experiment: MC65 intracellular amyloid toxicity assay; format: cell-based; conditions: Intracellular amyloid toxicity; read-out: MC65 EC50
Description: FIG. 4A illustrates the viability of MC-65 cells upon exposure to the indicated concentrations of compounds, and the degree to which synthesis of the C-terminal fragment of APP is induced by the removal of tetracycline. Cell death was determined 5 days later by the MTT assay and confirmed visually. The data are plotted as percent viable, relative to controls of drug plus un-induced cells.

[4] = test system: Wistar rats; experiment: Novel object recognition task in rats; format: in vivo, rat
Description: FIG. 6 illustrates the effect of galantamine, compounds CNB-001, J147, SK186 and SKI 87 on object recognition task in Wistar rats. The data represent mean±SEM. *p<0.05 compared with the vehicle control.
This model is based on the greater spontaneous exploration of a novel object, compared with a familiar object, shown by rodents (see Ennaceur and Delacour in Behav. Brain Res. 31:47 (1988)). Male Wister rats are assessed for cognitive ability in a test apparatus comprising an open-field arena placed in a sound-attenuated room under dimmed lighting. Images of the open-field are captured by digital camera, and viewed on a monitor in an adjoining room. Each rat is subjected to the procedure separately and care is taken to remove any olfactory/taste cues by cleaning the arena and test objects with alcohol between trials and rats.
Adult male Wistar rats were employed in all rat studies. Animals were placed in the experimental rooms at postnatal day 80 and assigned unique identification numbers (tail marked). Pairs were housed in polycarbonate cages with filter tops and acclimated for 3 days prior to commencing any studies. Animals were maintained in a 12 hour light/dark cycle with room temperature maintained at 22±2° C. with a relative humidity maintained approximately 50%. Food and water were provided ad libitum.
All animals were examined, handled, and weighed for a further two days prior to initiation of the study to assure adequate health and suitability and to minimize non-specific stress associated with manipulation. Each animal was randomly assigned across the treatment groups and balanced by cage numbers. The novel object recognition experiment was performed during the animal's light cycle phase. Drug treatments were balanced across days and animals were only used once
The following compounds were used for this study—Reference compound (Galantamine; 3 mg/kg) was dissolved in 0.9% saline and administered i.p. 1 hour pre-test at a dose volume of 1 ml/kg, and all test compounds were handled in solution, and were kept at −80° C. until use. All compounds were administered orally 60 min prior to training at a volume of 1 ml/kg body weight.
Following a 5-minute habituation period, each rat was placed into the test arena in the presence of two identical objects (plastic shapes). Each rat was placed facing the same direction at the same position in the arena, and the time spent actively exploring the objects during a 5-minute test period (T1) was recorded. The rat was returned to its home cage between tests. After 24 hours, each rat was again placed in the test arena for 5 minutes (T2) in the presence of one of the familiar objects and a novel object, and the time spent exploring both objects was again recorded. The presentation order and position of the objects (left/right) was randomized between rats to prevent bias from order or place preference. A preference index for each object, the ratio of the time spent exploring either the familiar object or the novel object over the total time spent exploring both objects (during retention session T2) was used to measure cognitive function.
Data were analyzed by a one-way analysis of variance (ANOVA) followed by post-hoc comparisons with Fisher Tests when appropriate. An effect was considered significant if p<0.05. Data in the following tables are presented as the mean and standard error to the mean.

Row | SMILES | EC50 [1] [nM] | EC50 [2] [nM] | EC50 [3] [nM] | Recognition index, Mean ([4]; 3 mg/kg i.p. 1 hour pre-test, Wistar rats, n=8) | Fisher's PLSD for Recognition index, Mean Diff. (*vehicle, treatment) ([4]; vehicle versus 3 mg/kg i.p.)
1 | COc1cccc(C=NN(C(C)=O)c2ccc(C)cc2C)c1 [Compound J147A] | 70 | > 1000 | 280 |  | 
2 | COc1ccc2c3c1O[C@H]1C[C@@H](O)C=C[C@@]31CCN(C)C2 [Galantamine, reference compound] |  |  |  | 74.037 | −22.114
3 | O=C(N(N=Cc1ccccc1)c1ccccc1)C(F)(F)F [HF 38FP] | 33 | 70 | 80 |  | 
4 | Cc1ccc(N(N=Cc2ccccc2)C(=O)C(F)(F)F)c(C)c1 [HF 39FP] | 37 | > 1000 | 220 |  | 
5 | COc1cccc(C=NN(C(=O)C(F)(F)F)c2ccccc2)c1 [HF 40FP] | 75 | 100 | 250 |  | 
6 | Cc1ccc(N(N=Cc2ccccc2)C(=O)C(F)(F)F)cc1 [HF 41FP] | 33 | > 1000 | > 1000 |  | 
7 | COc1cccc(C=NN(C(=O)C(F)(F)F)c2ccc(C)cc2)c1 [HF 42FP] | 80 | 700 | 50 |  | 
8 | COc1cccc(C=NN(C(=O)C(F)(F)F)c2ccccc2C)c1 [HF 43 FO] | 68 | > 1000 | 130 |  | 
9 | Cc1ccccc1N(N=Cc1ccccc1)C(=O)C(F)(F)F [HF 43FP] | 50 | 800 | 400 |  | 
10 | COc1ccc(C=NN(C(=O)C(F)(F)F)c2ccc(C)cc2C)cc1 [Sk35] | 4 | 35 | 10 |  | 
11 | Cc1ccc(N(N=Cc2ccc(C(=O)O)cc2)C(=O)C(F)(F)F)c(C)c1 [Sk36] | 100 | 300 | 300 |  | 
